{"source": "patent US4885239A", "about": "“Rapid differentiation of bacteria using polyether antibiotics” (Eastman Kodak Company, priority 1986, dated 1989)", "system": "viable gram-positive and gram-negative bacteria", "assay": "differentiation of viable gram-positive and gram-negative bacteria (outcome in words)", "assay_type": "cell-based", "details": "RIND VII; calimycin 10^-3 molar", "description": "gram-negative bacteria Enterobacter cloacae (ATCC 23355), Escherichia coli (ATCC 25922), Proteus vulgaris (ATCC 13315), Klebsiella pneumoniae (ATCC 13883) and Pseudomonas aeruginosa (ATCC 27853), and gram-positive bacteria Staphylococcus aureus (ATCC 25923) and Streptococcus pyogenes (ATCC 19615), and brain heart infusion (BHI) broth from Difco Laboratories (Detroit, Mich.),\nBacterial suspensions were prepared by growing the cells in BHI to stationary phase overnight at 37° C. P. aeruginosa was grown with agitation. About 40 ml of overnight cultures were centrifuged, decanted and washed once with 0.05 molar potassium phosphate buffer or 0.05 molar N-2-hydroxyethylpiperazine-N'-2-ethanesulfonic acid (HEPES) buffer, pH 7.8, and resuspended in buffer.\nTERGITOL 7 anionic surfactant was used to differentiate viable bacteria according to the prior art method. Various concentrations of TERGITOL 7 surfactant were mixed with a 10% glucose solution (50 μl), 3-(4,5-dimethyl-2-thiazolyl)-2,5-diphenyl-2N-tetrazolium bromide (MTT) in methanol (25 μl at 5 mg/ml) or a RIND VII dispersion (1.5 ml) and phenazine methosulfate ETA (25 μl at 3 mg/ml methanol). The volume of each test solution was brought to 3 ml with potassium phosphate buffer. A cell suspension (100 μl at about 10^8 cells/ml) was then added. The solutions were incubated at 37° C. for 15 and 30 minutes in the presence of either E. coli, a gram (-) bacterium, or S. aureus, a gram (+) bacterium. The amount of dye formed was then determined visually and graded as follows: 0 indicates no dye formation, +/- indicates faint dye formation, 1+ indicates light dye formation, 2+ indicates moderate dye formation, 3+ indicates strong dye formation, and 4+ indicates very strong dye formation.\nCalimycin, a polyether antibiotic, was similarly used with RIND VII in the differentiation of bacteria. Assays were performed as described above, except that 25 μl of 1 molar calcium chloride solution was added to each test solution and the P. aeruginosa response was measured in the presence of 10% yeast extract as the carbon source instead of glucose. The final concentration of calimycin in each test was 10^-3 molar.\nThe test solutions were prepared by adding the following, in order: 1.2 ml HEPES, 50 μl glucose solution, 1.5 ml RIND VII dispersion, 100 μl antibiotic solution, 100 μl cell suspension and 25 μl ETA solution. Cell control solutions contained all reagents except antibiotics. Background Controls consisted of both buffer and solution controls. The buffer control contained all reagents except antibiotics and cells. The solution control contained all reagents except cells.\nOptical density readings (OD) were made at 635 nm at 0 minutes and after incubation at 37° C. for 30 minutes for all solutions, and the change (ΔOD) was determined. Table V below lists the results expressed as corrected percent inhibition of the reduction of RIND VII. The corrected percent inhibition was calculated by dividing the difference between ΔOD obtained from a Control test without antibiotic and the ΔOD of the test, by the ΔOD of the Control without antibiotic. All readings were corrected by subtracting readings of the appropriate background control.\nRelative fluorescence was measured using a standard spectrophotometer modified to read at excitation of 540 nm and emission of 620 nm. The change (Δ) in relative fluorescence was determined after 30 minutes at 37° C. for several concentration levels of antibiotic.\nOptical density measurements were obtained at 540 nm using a standard spectrophotometer and the change in optical density (ΔOD) was determined after 30 minutes at 37° C. The resulting data are shown in Table VII below for several concentrations of antibiotic. It is clear from the data that the composition of this example was useful for differentiating bacteria. […]", "data": [{"compound": "CNc1ccc2oc(C[C@H]3O[C@@]4(CC[C@H]3C)O[C@H]([C@H](C)C(=O)c3ccc[nH]3)[C@H](C)C[C@H]4C)nc2c1C(=O)O", "note": "[calimycin, Calimycin]", "values": [{"measurement": "inhibition of the reduction of the reducible compounds by viable gram-positive bacteria", "value": "selectively and substantially inhibits the reduction of the reducible compounds"}, {"measurement": "reductive capability of the viable gram-negative bacteria", "value": "not inhibited"}]}]}
